Assays:
Palmer Amaranth = experiment: Field test, post emergence weed control: Palmer Amaranth; type: in vivo, Amaranthus palmeri; details: 12 DAT, MSO 1% v/v
Description: (§1) The following field test was conducted during spring in Mississippi. Sharpen® was used in the test as the source of saflufenacil. Valor® was used in the test as the source of flumioxazin. Roundup Ready soybeans (Glycine max) were used in the test as the crop plant. All of the treatments contained MSO concentrate oil at 1% v/v.
(§2) When the test began, the test plot had Horseweed that was 6 to 20 inches tall. Applications were administered at the concentrations as follows. Saflufenacil was administered at 0.011, 0.017 or 0.022 lb ai/acre (indicated in the table as “S” followed by the amount). Flumioxazin was administered at 0.064 lb ai/acre, and 2,4-D was administered at 0.5 lb ai/acre throughout the experiment. Three days after the treatment (3 DAT), soybeans were planted across the front of the plot. On 7 DAT, another pass of soybeans was planted across the front of the plot with a 30 inch planter. Each test was
(§3) On 11 DAT, readings were taken to determine the survival of Horseweed and Crabgrass. On 12 DAT, readings were taken to determine the survival of Palmer Amaranth, Broadleaf Signalgrass, Common Barnyardgrass, Yellow Nutsedge, and Eclipta. Survival ratings were taken by counting the number of alive and dead plants at the time of the reading. The pytotoxicity of each treatment was also evaluated by examining the soybeans at 11 and 12 DAT. All data was analyzed using Bartlett's test and with p value of […] for determining significance of the results. The Effect of Saflufenacil, Flumioxazin and 2,4-D on Weeds.”

Horseweed = experiment: Field test, post emergence weed control: Horseweed; type: in vivo, Conyza Canadensis; details: for Effect on Weeds, Plants: Horseweed: 11 DAT, MSO 1% v/v; for control (Actual % Control) / % Alone: Horseweed; for control (Actual % Control): rounded Table 1 values, saflufenacil 0.011, flumioxazin 0.064, 2,4-D 0.5 lb ai/acre as present; for % Alone: synergy calculation, each component alone (saflufenacil 0.011, 2,4-D 0.5, flumioxazin 0.064 lb ai/acre)
Description: as §1, §2, §3
Applicants used the widely accepted fraction method for determining synergy. The fraction method involves not merely adding together the individual control percentages together, as that will often be greater than 100%. The fraction method involves taking the control as a decimal value (X), multiplying the 1 minus X values together, then taking the “1 minus” value to get the calculated control as a decimal value. For example, if two products give 60% control, the additive or predicted value would be 84% and not 120%. See Rao, V. S., Principles of Weed Science, Second Edition, (2000) 351-352, and the illustrative example below.

Yellow Nutsedge = experiment: Field test, post emergence weed control: Yellow Nutsedge; type: in vivo, Cyperus esculentus; details: 12 DAT, MSO 1% v/v
Description: as §1, §2, §3

Common Barnyardgrass = experiment: Field test, post emergence weed control: Common Barnyardgrass; type: in vivo, Echinochloa crus-galli; details: 12 DAT, MSO 1% v/v
Description: as §1, §2, §3

Eclipta = experiment: Field test, post emergence weed control: Eclipta; type: in vivo, Eclipta prostrata; details: 12 DAT, MSO 1% v/v
Description: as §1, §2, §3

Large Crabgrass = experiment: Field test, post emergence weed control: Large Crabgrass; type: in vivo, Digitaria sanguinalis; details: 11 DAT, MSO 1% v/v
Description: as §1, §2, §3

Broadleaf Signalgrass = experiment: Field test, post emergence weed control: Broadleaf Signalgrass; type: in vivo, Brachiaria platyhylla; details: 12 DAT, MSO 1% v/v
Description: as §1, §2, §3

[1] = no saflufenacil, flumioxazin 0.064 lb ai/acre, 2,4-D 0.5 lb ai/acre
[2] = saflufenacil 0.011 lb ai/acre (flumioxazin 0.064, 2,4-D 0.5 lb ai/acre where in the treatment)
[3] = saflufenacil 0.017 lb ai/acre (flumioxazin 0.064, 2,4-D 0.5 lb ai/acre where in the treatment)
[4] = saflufenacil 0.022 lb ai/acre (flumioxazin 0.064, 2,4-D 0.5 lb ai/acre where in the treatment)

O=C(O)COc1ccc(Cl)cc1Cl [2,4-D, 2,4-Dichlorophenoxyacetic acid]
Effect on Weeds, Plants: Palmer Amaranth (Palmer Amaranth; [1]): 91.0
Effect on Weeds, Plants: Horseweed (Horseweed; [1]): 11.7
control (Actual % Control) (Horseweed): 12%
% Alone (Horseweed): 12.00%
Effect on Weeds, Plants: Yellow Nutsedge (Yellow Nutsedge; [1]): 8.3
Effect on Weeds, Plants: Common Barnyardgrass (Common Barnyardgrass; [1]): 15.0
Effect on Weeds, Plants: Eclipta (Eclipta; [1]): 91.0
Effect on Weeds, Plants: Large Crabgrass (Large Crabgrass; [1]): 50.0
Effect on Weeds, Plants: Broadle Signalgrass (Broadleaf Signalgrass; [1]): 21.7

C#CCN1C(=O)COc2cc(F)c(N3C(=O)C4=C(CCCC4)C3=O)cc21 [Flumioxazin, 2-[7-fluoro-3,4-dihydro-3-oxo-4-(2-propynyl)-2H-1,4-benzoxazin-6-yl]-4,5,6,7-tetrahydro-1H-isoindole-1,3(2H)-dione]
Effect on Weeds, Plants: Palmer Amaranth (Palmer Amaranth; [1]): 96.0
Effect on Weeds, Plants: Horseweed (Horseweed; [1]): 15.0
control (Actual % Control) (Horseweed): 15%
% Alone (Horseweed): 15.00%
Effect on Weeds, Plants: Yellow Nutsedge (Yellow Nutsedge; [1]): 42.5
Effect on Weeds, Plants: Common Barnyardgrass (Common Barnyardgrass; [1]): 45.0
Effect on Weeds, Plants: Eclipta (Eclipta; [1]): 86.3
Effect on Weeds, Plants: Large Crabgrass (Large Crabgrass; [1]): 70.0
Effect on Weeds, Plants: Broadle Signalgrass (Broadleaf Signalgrass; [1]): 45.0

CC(C)N(C)S(=O)(=O)NCc1cc(-n2c(=O)cc(C(F)(F)F)n(C)c2=O)c(F)cc1Cl [S, N′-[2-chloro-4-fluoro-5-(3-methyl-2,6-dioxo-4-(trifluoromethyl)-3,6-dihydro-1(2H)-pyrimidinyl)benzyl]-N-isopropyl-N-methylsulfamide]
Effect on Weeds, Plants: Palmer Amaranth (Palmer Amaranth; [2]): 91.0
Effect on Weeds, Plants: Palmer Amaranth (Palmer Amaranth; [3]): 91.3
Effect on Weeds, Plants: Palmer Amaranth (Palmer Amaranth; [4]): 96.0
Effect on Weeds, Plants: Horseweed (Horseweed; [2]): 66.7
Effect on Weeds, Plants: Horseweed (Horseweed; [3]): 78.3
Effect on Weeds, Plants: Horseweed (Horseweed; [4]): 86.7
control (Actual % Control) (Horseweed): 67%
% Alone (Horseweed): 67.00%
Effect on Weeds, Plants: Yellow Nutsedge (Yellow Nutsedge; [2]): 23.3
Effect on Weeds, Plants: Yellow Nutsedge (Yellow Nutsedge; [3]): 35.0
Effect on Weeds, Plants: Yellow Nutsedge (Yellow Nutsedge; [4]): 30.0
Effect on Weeds, Plants: Common Barnyardgrass (Common Barnyardgrass; [2]): 31.7
Effect on Weeds, Plants: Common Barnyardgrass (Common Barnyardgrass; [3]): 41.7
Effect on Weeds, Plants: Common Barnyardgrass (Common Barnyardgrass; [4]): 25.0
Effect on Weeds, Plants: Eclipta (Eclipta; [2]): 83.0
Effect on Weeds, Plants: Eclipta (Eclipta; [3]): 91.3
Effect on Weeds, Plants: Eclipta (Eclipta; [4]): 93.0
Effect on Weeds, Plants: Large Crabgrass (Large Crabgrass; [2]): 43.3
Effect on Weeds, Plants: Large Crabgrass (Large Crabgrass; [3]): 60.0
Effect on Weeds, Plants: Large Crabgrass (Large Crabgrass; [4]): 56.7
Effect on Weeds, Plants: Broadle Signalgrass (Broadleaf Signalgrass; [2]): 31.7
Effect on Weeds, Plants: Broadle Signalgrass (Broadleaf Signalgrass; [3]): 45.0
Effect on Weeds, Plants: Broadle Signalgrass (Broadleaf Signalgrass; [4]): 31.7

— patent US9585393B2, “Saflufenacil, flumioxazin, and 2,4-D weed control compositions and methods of use thereof” (Valent U.S.A., Corporation, priority 2014, dated 2017)
